What was measured:
Assay in all cases: Test C preemergence
Assay type in all cases: in vivo
[1] = tested on: barnyardgrass (Echinochloa crus-galli); details: for Plant response rating (scale of 0 to 100), Barnyardgrass: 0 is no effect, 100 is complete control
Method in brief: (§1)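 Herbicidal effect, applied preemergence to sown seeds or postemergence to 1- to 4-leaf plants, was scored visually 13 to 15 d after application, 0 to 100 versus controls.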

[2] = tested on: foxtail, giant (giant foxtail, Setaria faberii); details: for Plant response rating (scale of 0 to 100), Foxtail, Giant: 0 is no effect, 100 is complete control
Method in brief: as §1

[3] = tested on: velvetleaf (Abutilon theophrasti); details: for Plant response rating (scale of 0 to 100), Velvetleaf: 0 is no effect, 100 is complete control
Method in brief: as §1

[4] = tested on: ryegrass, Italian (Italian ryegrass, Lolium multiflorum); details: for Plant response rating (scale of 0 to 100), Ryegrass, Italian: 0 is no effect, 100 is complete control
Method in brief: as §1

[5] = tested on: lambsquarters (Chenopodium album); details: for Plant response rating (scale of 0 to 100), Lambsquarters: 0 is no effect, 100 is complete control
Method in brief: as §1

[6] = tested on: crabgrass, large (large crabgrass, Digitaria sanguinalis); details: for Plant response rating (scale of 0 to 100), Crabgrass, Large: 0 is no effect, 100 is complete control
Method in brief: as §1

[7] = tested on: blackgrass (Alopecurus myosuroides); details: for Plant response rating (scale of 0 to 100), Blackgrass: 0 is no effect, 100 is complete control
Method in brief: as §1

[8] = tested on: Galium (catchweed bedstraw, Galium aparine); details: for Plant response rating (scale of 0 to 100), Galium: 0 is no effect, 100 is complete control
Method in brief: as §1

[9] = tested on: ragweed (common ragweed, Ambrosia elatior); details: for Plant response rating (scale of 0 to 100), Ragweed: 0 is no effect, 100 is complete control
Method in brief: as §1

[10] = tested on: corn (Zea mays); details: for Plant response rating (scale of 0 to 100), Corn: 0 is no effect, 100 is complete control
Method in brief: as §1

[11] = tested on: soybean (Glycine max); details: for Plant response rating (scale of 0 to 100), Soybean: 0 is no effect, 100 is complete control
Method in brief: as §1

[12] = tested on: wheat (winter wheat, Triticum aestivum); details: for Plant response rating (scale of 0 to 100), Wheat: 0 is no effect, 100 is complete control
Method in brief: as §1

[13] = tested on: nutsedge, yellow (yellow nutsedge, Cyperus esculentus); details: for Plant response rating (scale of 0 to 100), Nutsedge, Yellow: 0 is no effect, 100 is complete control
Method in brief: as §1

[14] = tested on: waterhemp (common waterhemp, Amaranthus rudis); details: for Plant response rating (scale of 0 to 100), Waterhemp: 0 is no effect, 100 is complete control
Method in brief: as §1

[15] = tested on: oilseed rape (Brassica napus); details: for Plant response rating (scale of 0 to 100), Oilseed Rape: 0 is no effect, 100 is complete control
Method in brief: as §1

[16] = tested on: morningglory (Ipomoea coccinea); details: for Plant response rating (scale of 0 to 100), Morningglory: 0 is no effect, 100 is complete control
Method in brief: as §1

[17] = 62 g ai/ha, scale 0 to 100, 0 no effect, 100 complete control

CN1CC(c2ccc(C(C)(F)F)cc2)C(C(=O)Nc2cccc(F)c2F)C1=O (stereo not shown) [Compound 690]
Plant response rating (scale of 0 to 100), Barnyardgrass ([1]; 8 g ai/ha): 85
Plant response rating (scale of 0 to 100), Barnyardgrass ([1]; 16 g ai/ha): 95
Plant response rating (scale of 0 to 100), Barnyardgrass ([1]; 31 g ai/ha): 95
Plant response rating, Barnyardgrass [1, 17]: 98
Plant response rating (scale of 0 to 100), Foxtail, Giant ([2]; 8 g ai/ha): 90
Plant response rating (scale of 0 to 100), Foxtail, Giant ([2]; 16 g ai/ha): 95
Plant response rating (scale of 0 to 100), Foxtail, Giant ([2]; 31 g ai/ha): 95
Plant response rating, Foxtail, Giant [2, 17]: 98
Plant response rating (scale of 0 to 100), Velvetleaf ([3]; 8 g ai/ha): 0
Plant response rating (scale of 0 to 100), Velvetleaf ([3]; 16 g ai/ha): 0
Plant response rating (scale of 0 to 100), Velvetleaf ([3]; 31 g ai/ha): 20
Plant response rating, Velvetleaf [3, 17]: 50
Plant response rating (scale of 0 to 100), Ryegrass, Italian ([4]; 8 g ai/ha): 0
Plant response rating (scale of 0 to 100), Ryegrass, Italian ([4]; 16 g ai/ha): 10
Plant response rating (scale of 0 to 100), Ryegrass, Italian ([4]; 31 g ai/ha): 40
Plant response rating, Ryegrass, Italian [4, 17]: 45
Plant response rating (scale of 0 to 100), Lambsquarters ([5]; 8 g ai/ha): 65
Plant response rating (scale of 0 to 100), Lambsquarters ([5]; 16 g ai/ha): 65
Plant response rating (scale of 0 to 100), Lambsquarters ([5]; 31 g ai/ha): 75
Plant response rating, Lambsquarters [5, 17]: 85
Plant response rating (scale of 0 to 100), Crabgrass, Large ([6]; 8 g ai/ha): 95
Plant response rating (scale of 0 to 100), Crabgrass, Large ([6]; 16 g ai/ha): 98
Plant response rating (scale of 0 to 100), Crabgrass, Large ([6]; 31 g ai/ha): 98
Plant response rating, Crabgrass, Large [6, 17]: 100
Plant response rating (scale of 0 to 100), Blackgrass ([7]; 8 g ai/ha): 0
Plant response rating (scale of 0 to 100), Blackgrass ([7]; 16 g ai/ha): 0
Plant response rating (scale of 0 to 100), Blackgrass ([7]; 31 g ai/ha): 50
Plant response rating, Blackgrass [7, 17]: 55
Plant response rating (scale of 0 to 100), Galium ([8]; 8 g ai/ha): 100
Plant response rating (scale of 0 to 100), Galium ([8]; 16 g ai/ha): 90
Plant response rating (scale of 0 to 100), Galium ([8]; 31 g ai/ha): 95
Plant response rating, Galium [8, 17]: 98
Plant response rating (scale of 0 to 100), Ragweed ([9]; 8 g ai/ha): 0
Plant response rating (scale of 0 to 100), Ragweed ([9]; 16 g ai/ha): 10
Plant response rating (scale of 0 to 100), Ragweed ([9]; 31 g ai/ha): 25
Plant response rating, Ragweed [9, 17]: 80
Plant response rating (scale of 0 to 100), Corn ([10]; 8 g ai/ha): 20
Plant response rating (scale of 0 to 100), Corn ([10]; 16 g ai/ha): 10
Plant response rating (scale of 0 to 100), Corn ([10]; 31 g ai/ha): 20
Plant response rating, Corn [10, 17]: 70
Plant response rating (scale of 0 to 100), Soybean ([11]; 8 g ai/ha): 0
Plant response rating (scale of 0 to 100), Soybean ([11]; 16 g ai/ha): 0
Plant response rating (scale of 0 to 100), Soybean ([11]; 31 g ai/ha): 0
Plant response rating, Soybean [11, 17]: 0
Plant response rating (scale of 0 to 100), Wheat ([12]; 8 g ai/ha): 0
Plant response rating (scale of 0 to 100), Wheat ([12]; 16 g ai/ha): 5
Plant response rating (scale of 0 to 100), Wheat ([12]; 31 g ai/ha): 40
Plant response rating, Wheat [12, 17]: 45
Plant response rating (scale of 0 to 100), Nutsedge, Yellow ([13]; 8 g ai/ha): 0
Plant response rating (scale of 0 to 100), Nutsedge, Yellow ([13]; 16 g ai/ha): 0
Plant response rating (scale of 0 to 100), Nutsedge, Yellow ([13]; 31 g ai/ha): 0
Plant response rating, Nutsedge, Yellow [13, 17]: 50
Plant response rating (scale of 0 to 100), Waterhemp ([14]; 8 g ai/ha): 65
Plant response rating (scale of 0 to 100), Waterhemp ([14]; 16 g ai/ha): 80
Plant response rating (scale of 0 to 100), Waterhemp ([14]; 31 g ai/ha): 90
Plant response rating, Waterhemp [14, 17]: 95
Plant response rating (scale of 0 to 100), Oilseed Rape ([15]; 8 g ai/ha): 0
Plant response rating (scale of 0 to 100), Oilseed Rape ([15]; 16 g ai/ha): 50
Plant response rating (scale of 0 to 100), Oilseed Rape ([15]; 31 g ai/ha): 75
Plant response rating, Oilseed Rape [15, 17]: 80
Plant response rating (scale of 0 to 100), Morningglory ([16]; 8 g ai/ha): 0
Plant response rating (scale of 0 to 100), Morningglory ([16]; 16 g ai/ha): 0
Plant response rating (scale of 0 to 100), Morningglory ([16]; 31 g ai/ha): 0
Plant response rating, Morningglory [16, 17]: 0

Reference: patent US12077503B2, “Substituted cyclic amides and their use as herbicides” (FMC CORPORATION, priority 2015, dated 2024)
